Test results published in US5312749A, “Industrial alkaline protease from shipworm bacterium” (The United States of America as represented by the …, priority 1992, dated 1994).
Structures can show the parent of a compound that is named as a salt. Where two headings read alike, the source gives them in different places.

Experiments:
[1] = test system: alkaline protease from shipworm bacterium; experiment: Inhibition of alkaline protease: preincubation with inhibitor, then azocasein assay; format: biochemical, bacterial symbiont of the shipworm Psiloteredo healdi; conditions: for Activity (%): assay 42° C., pH 9.0, 0.2M NaCl
Procedure: The protease purification was monitored by assaying for proteolytic activity and protein concentration after each step. Proteolytic activity was determined in duplicate assays employing azocasein for the substrate, as described by Cotta et al. [Applied Environmental Microbiology, vol. 52, 51-58 (1986)]. Units represent μg of azocasein digested per hour. Protein concentrations were determined by the method of Bradford [Analytical Biochemistry, […] (1976)] with bovine serum albumin as a standard.
Several compounds known to inhibit various proteases were examined for their effect on the activity of the purified enzyme from Example 2 (Table II). The protease was incubated prior to assay for 1 hr at 25° C. All assays were measured at 42° C. and pH 9.0 in 0.2M NaCl buffered with 100 mM bis Tris propane.

[2] = test system: alkaline protease from shipworm bacterium; experiment: as above; format: biochemical, bacterial symbiont of the shipworm Psiloteredo healdi; conditions: inhibitor 0.1%; preincubation 1 hr at 42° C.; assay 42° C., pH 9.0, 0.2M NaCl
[3] = inhibitor 0.1 mM, preincubated 1 hr at 25° C., 100% = 154 units/ml
[4] = inhibitor 10 mM, preincubated 1 hr at 25° C., 100% = 154 units/ml
[5] = inhibitor 1 mM, preincubated 1 hr at 25° C., 100% = 154 units/ml

| Compound | Activity (%) [1, 3] [%] | Activity (%) [1, 4] [%] | effect on the activity of the protease (in words) [1] | Activity (%) [1, 5] [%] | also measured |
| --- | --- | --- | --- | --- | --- |
| [Cl][Cu][Cl] [CuCl2] | 97 | 94 |  |  |  |
| O=C(O)CN(CCN(CC(=O)O)CC(=O)O)CC(=O)O [EDTA (disodium salt), EDTA] |  | 102 | little effect |  |  |
| [Cl][Hg][Cl] [HgCl2] | 66 | 8 |  |  |  |
| NC(=O)CI [Iodoacetamide] | 102 | 100 | little effect | 102 |  |
| Cc1ccc2ccc3ccc(C)nc3c2n1 [Neocuproine HCl] |  | 99 | little effect |  |  |
| O=S(=O)(F)Cc1ccccc1 [Phenylmethanesulphonyl fluoride] | 93 | 102 | does not inhibit activity | 98 |  |
| O.O.O.O.[Na+].[O-]B1OO1 [Sodium perborate tetrahydrate] |  |  |  |  | Activity (%) ([1]; inhibitor 0.1%, preincubation 1 hr at 25° C.): 119%; effect on the activity of the protease (in words) ([1]; listed as perborate): protease activity stimulation; effect on the activity of the protease (in words) ([1]; listed as sodium perborate): little effect; effect on the activity of the protease (in words) ([1]; listed as sodium perborate tetrahydrate): apparent enhancement of protease activity; Activity (%) [2]: 117% |
| Cc1ccc(S(=O)(=O)N[C@@H](CCCCN)C(=O)CCl)cc1 [TLCK, tosyl-1-lysine chloromethyl ketone] | 47 | 7 | significantly reduces the activity at low concentrations and abolishes it at high concentrations | 20 |  |
| Cc1ccc(S(=O)(=O)N[C@@H](Cc2ccccc2)C(=O)CCl)cc1 [TPCK, tosylamide phenylethyl chloromethyl ketone] | 94 | 100 | unaffected | 99 |  |
| NCCCCCC(=O)O [ε-Amino-n-caproic acid] |  |  | unaffected |  | Activity (%) ([1]; inhibitor 100 μg, preincubated 1 hr at 25° C.): 101%; Activity (%) ([1]; inhibitor 500 μg, preincubated 1 hr at 25° C.): 99% |
